Experimental data from ChEMBL document CHEMBL1909294, “Translating clinical findings into knowledge in drug safety evaluation--drug induced liver injury prediction system (DILIps)” (PLoS Comput Biol, 2011).

Tests used:
Hepatotoxicity [1] = test system: Hepatotoxicity;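 as to HepSE bilirubinemia: bilirubinemia hepatic side effect score drawn from the DILIps training data, a prediction system for drug-induced liver injury; call rule not given here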;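 as to HepSE cirrhosis: cirrhosis hepatic side effect score taken from the DILIps (drug-induced liver injury prediction) training set; call rule not given here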;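 as to HepSE elevated liver function tests: hepatic side effect score for raised liver function tests, as recorded in the DILIps training set used for predicting drug-induced liver injury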; as to HepSE hepatic failure: call rule not given here;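 as to HepSE jaundice: Jaundice-related hepatic side-effect score drawn from the training data of the DILIps (drug-induced liver injury prediction system); call rule not given here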; as to HepSE liver disease: call rule not given here;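 as to HepSE liver fatty: hepatic side effect score for fatty liver, taken from the DILIps training set for predicting drug-induced liver injury; call rule not given here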
Hepatotoxicity [2] = test system: Hepatotoxicity; remark: listed apart in the source;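 as to HepSE bilirubinemia: bilirubinemia hepatic side effect score drawn from the DILIps training data, a prediction system for drug-induced liver injury; call rule not given here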;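 as to HepSE cirrhosis: cirrhosis hepatic side effect score taken from the DILIps (drug-induced liver injury prediction) training set; call rule not given here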;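 as to HepSE elevated liver function tests: hepatic side effect score for raised liver function tests, as recorded in the DILIps training set used for predicting drug-induced liver injury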; as to HepSE hepatic failure: call rule not given here;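 as to HepSE jaundice: Jaundice-related hepatic side-effect score drawn from the training data of the DILIps (drug-induced liver injury prediction system); call rule not given here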; as to HepSE liver disease: call rule not given here;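 as to HepSE liver fatty: hepatic side effect score for fatty liver, taken from the DILIps training set for predicting drug-induced liver injury; call rule not given here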
Hepatotoxicity [3] = test system: Hepatotoxicity; remark: listed apart in the source;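 as to HepSE bilirubinemia: bilirubinemia hepatic side effect score drawn from the DILIps training data, a prediction system for drug-induced liver injury; call rule not given here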;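 as to HepSE cirrhosis: cirrhosis hepatic side effect score taken from the DILIps (drug-induced liver injury prediction) training set; call rule not given here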;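 as to HepSE elevated liver function tests: hepatic side effect score for raised liver function tests, as recorded in the DILIps training set used for predicting drug-induced liver injury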; as to HepSE hepatic failure: call rule not given here;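 as to HepSE jaundice: Jaundice-related hepatic side-effect score drawn from the training data of the DILIps (drug-induced liver injury prediction system); call rule not given here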; as to HepSE liver disease: call rule not given here;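 as to HepSE liver fatty: hepatic side effect score for fatty liver, taken from the DILIps training set for predicting drug-induced liver injury; call rule not given here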
Hepatotoxicity [4] = test system: Hepatotoxicity; remark: listed apart in the source;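 as to HepSE bilirubinemia: bilirubinemia hepatic side effect score drawn from the DILIps training data, a prediction system for drug-induced liver injury; call rule not given here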;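 as to HepSE cirrhosis: cirrhosis hepatic side effect score taken from the DILIps (drug-induced liver injury prediction) training set; call rule not given here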;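 as to HepSE elevated liver function tests: hepatic side effect score for raised liver function tests, as recorded in the DILIps training set used for predicting drug-induced liver injury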; as to HepSE hepatic failure: call rule not given here;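 as to HepSE jaundice: Jaundice-related hepatic side-effect score drawn from the training data of the DILIps (drug-induced liver injury prediction system); call rule not given here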; as to HepSE liver disease: call rule not given here
Hepatotoxicity [5] = test system: Hepatotoxicity; remark: listed apart in the source; as to HepSE hepatic failure: call rule not given here; as to HepSE liver disease: call rule not given here
Hepatotoxicity [6] = test system: Hepatotoxicity; remark: listed apart in the source; as to HepSE hepatic failure: call rule not given here; as to HepSE liver disease: call rule not given here
Hepatotoxicity [7] = test system: Hepatotoxicity; remark: listed apart in the source
Hepatotoxicity [8] = test system: Hepatotoxicity; remark: listed apart in the source
Hepatotoxicity [9] = test system: Hepatotoxicity; remark: listed apart in the source
Hepatotoxicity [10] = test system: Hepatotoxicity; remark: listed apart in the source
Hepatotoxicity [11] = test system: Hepatotoxicity; remark: listed apart in the source
Hepatotoxicity [12] = test system: Hepatotoxicity; remark: listed apart in the source
Hepatotoxicity [13] = test system: Hepatotoxicity; remark: listed apart in the source
Hepatotoxicity [14] = test system: Hepatotoxicity; remark: listed apart in the source

SMILES	HepSE_cirrhosis (Hepatotoxicity [1])	HepSE_bilirubinemia (Hepatotoxicity [2])	HepSE_hepatic failure (Hepatotoxicity [3])	HepSE_elevated liver function tests (Hepatotoxicity [4])	HepSE_liver disease (Hepatotoxicity [5])	HepSE_jaundice (Hepatotoxicity [6])	HepSE_liver fatty (Hepatotoxicity [7])	HepSE_liver function tests abnormal (Hepatotoxicity [8])	HepSE_Combined Scores (Hepatotoxicity [9])	HepSE_cholecystitis (Hepatotoxicity [10])	HepSE_hepatic necrosis (Hepatotoxicity [11])	HepSE_cholelithiasis (Hepatotoxicity [12])	HepSE_hepatomegaly (Hepatotoxicity [13])	HepSE_hepatitis (Hepatotoxicity [14])	HepSE_elevated liver function tests (Hepatotoxicity [4]; Liver)	HepSE_liver function tests abnormal (Hepatotoxicity [8]; Liver)	also measured
CN(C)CC(c1ccc(O)cc1)C1(O)CCCCC1 (configuration not stated) [DESVENLAFAXINE]	0	0	0	0	0	0	0	0	0	0	0	0	0	0			
C[C@@H]1C[C@H]2[C@@H]3CCC4=CC(=O)C=C[C@]4(C)[C@@]3(F)[C@@H](O)C[C@]2(C)[C@@]1(O)C(=O)CO [DEXAMETHASONE]	0	0	0	0	0	0	0	0	1	0	0	0	1	0			
Cc1cccc([C@H](C)c2cnc[nH]2)c1C [DEXMEDETOMIDINE]															0	0	HepSE_cirrhosis (Hepatotoxicity [1]; Liver): 0; HepSE_bilirubinemia (Hepatotoxicity [2]; Liver): 1; HepSE_hepatic failure (Hepatotoxicity [3]; Liver): 0; HepSE_liver disease (Hepatotoxicity [5]; Liver): 0; HepSE_jaundice (Hepatotoxicity [6]; Liver): 0; HepSE_liver fatty (Hepatotoxicity [7]; Liver): 0; HepSE_Combined Scores (Hepatotoxicity [9]; Liver): 1; HepSE_cholecystitis (Hepatotoxicity [10]; Liver): 0; HepSE_hepatic necrosis (Hepatotoxicity [11]; Liver): 0; HepSE_cholelithiasis (Hepatotoxicity [12]; Liver): 0; HepSE_hepatomegaly (Hepatotoxicity [13]; Liver): 0; HepSE_hepatitis (Hepatotoxicity [14]; Liver): 0
C[C@@H](CN1CC(=O)NC(=O)C1)N1CC(=O)NC(=O)C1 [DEXRAZOXANE]	0	0	0	0	0	0	0	0	0	0	0	0	0	0			
CC1=NS(=O)(=O)c2cc(Cl)ccc2N1 [DIAZOXIDE]	0	0	0	0	0	0	0	0	0	0	0	0	0	0			
O=C(O)Cc1ccccc1Nc1c(Cl)cccc1Cl [DICLOFENAC]															0	0	HepSE_cirrhosis (Hepatotoxicity [1]; Liver): 1; HepSE_bilirubinemia (Hepatotoxicity [2]; Liver): 0; HepSE_hepatic failure (Hepatotoxicity [3]; Liver): 1; HepSE_liver disease (Hepatotoxicity [5]; Liver): 0; HepSE_jaundice (Hepatotoxicity [6]; Liver): 1; HepSE_liver fatty (Hepatotoxicity [7]; Liver): 0; HepSE_Combined Scores (Hepatotoxicity [9]; Liver): 5; HepSE_cholecystitis (Hepatotoxicity [10]; Liver): 0; HepSE_hepatic necrosis (Hepatotoxicity [11]; Liver): 1; HepSE_cholelithiasis (Hepatotoxicity [12]; Liver): 0; HepSE_hepatomegaly (Hepatotoxicity [13]; Liver): 0; HepSE_hepatitis (Hepatotoxicity [14]; Liver): 1
Cc1onc(-c2c(Cl)cccc2Cl)c1C(=O)N[C@@H]1C(=O)N2[C@@H]1SC(C)(C)[C@@H]2C(=O)O [DICLOXACILLIN]	0	0	0	0	0	0	0	1	2	0	0	0	0	1			
CCN(CC)CCOC(=O)C1(C2CCCCC2)CCCCC1 [DICYCLOMINE]	0	0	0		0	0	0		0	0	0	0	0	0	0	0	
O=c1[nH]cnc2c1ncn2[C@H]1CC[C@@H](CO)O1 [DIDANOSINE]	0	0	1	0	0	0	1	0	4	0	0	0	1	1			
CCN(CC)C(C)C(=O)c1ccccc1 (configuration not stated) [DIETHYLPROPION]	0	0	0	0	0	0	0	0	0	0	0	0	0	0			
O=C(O)c1cc(-c2ccc(F)cc2F)ccc1O [DIFLUNISAL]															0	0	HepSE_cirrhosis (Hepatotoxicity [1]; Liver): 0; HepSE_bilirubinemia (Hepatotoxicity [2]; Liver): 0; HepSE_hepatic failure (Hepatotoxicity [3]; Liver): 0; HepSE_liver disease (Hepatotoxicity [5]; Liver): 0; HepSE_jaundice (Hepatotoxicity [6]; Liver): 1; HepSE_liver fatty (Hepatotoxicity [7]; Liver): 0; HepSE_Combined Scores (Hepatotoxicity [9]; Liver): 2; HepSE_cholecystitis (Hepatotoxicity [10]; Liver): 0; HepSE_hepatic necrosis (Hepatotoxicity [11]; Liver): 0; HepSE_cholelithiasis (Hepatotoxicity [12]; Liver): 0; HepSE_hepatomegaly (Hepatotoxicity [13]; Liver): 0; HepSE_hepatitis (Hepatotoxicity [14]; Liver): 1
C[C@H]1O[C@@H](O[C@H]2[C@@H](O)C[C@H](O[C@H]3[C@@H](O)C[C@H](O[C@H]4CC[C@@]5(C)[C@H](CC[C@@H]6[C@@H]5C[C@@H](O)[C@]5(C)[C@@H](C7=CC(=O)OC7)CC[C@]65O)C4)O[C@@H]3C)O[C@@H]2C)C[C@H](O)[C@@H]1O [DIGOXIN]	0	0	0	0	0	0	0	0	0	0	0	0	0	0			
CN1C[C@H](C(=O)N[C@]2(C)O[C@@]3(O)[C@@H]4CCCN4C(=O)[C@H](Cc4ccccc4)N3C2=O)C[C@@H]2c3cccc4[nH]cc(c34)C[C@H]21 [DIHYDROERGOTAMINE]	0	0	0	0	0	0	0	0	0	0	0	0	0	0			
